From patent US10561656B2, “Organic compounds” (INTRA-CELLULAR THERAPIES, INC., priority 2011, dated 2020) come the findings set out here.

Each structure is given as a SMILES string.

The target in test [1] is recombinant full length human PDE1A (r-hPDE1A) (Homo sapiens (Human), UniProt P54750). Kind of test: IMAP phosphodiesterase assay, r-hPDE1A. The test is classed as biochemical. To be noted: IMAP fluorescence polarization, FL-GMP substrate. The text has this:
(§1) Phosphodiesterase 1B (PDE1B) is a calcium/calmodulin dependent phosphodiesterase enzyme that converts cyclic guanosine monophosphate (cGMP) to 5′-guanosine monophosphate (5′-GMP). PDE1B can also convert a modified cGMP substrate, such as the fluorescent molecule cGMP-fluorescein, to the corresponding GMP-fluorescein. The generation of GMP-fluorescein from cGMP-fluorescein can be quantitated, using, for example, the IMAP (Molecular Devices, Sunnyvale, Calif.) immobilized-metal affinity particle reagent.
(§2) Briefly, the IMAP reagent binds with high affinity to the free 5′-phosphate that is found in GMP-fluorescein and not in cGMP-fluorescein. The resulting GMP-fluorescein—IMAP complex is large relative to cGMP-fluorescein. Small fluorophores that are bound up in a large, slowly tumbling, complex can be distinguished from unbound fluorophores, because the photons emitted as they fluoresce retain the same polarity as the photons used to excite the fluorescence.
(§3) In the phosphodiesterase assay, cGMP-fluorescein, which cannot be bound to IMAP, and therefore retains little fluorescence polarization, is converted to GMP-fluorescein, which, when bound to IMAP, yields a large increase in fluorescence polarization (Δmp) Inhibition of phosphodiesterase, therefore, is detected as a decrease in Δmp.
Materials: All chemicals are available from Sigma-Aldrich (St. Louis, Mo.) except for IMAP reagents (reaction buffer, binding buffer, FL-GMP and IMAP beads), which are available from Molecular Devices (Sunnyvale, Calif.).
Assay: The following phosphodiesterase enzymes may be used: 3′,5′-cyclic-nucleotide-specific bovine brain phosphodiesterase (Sigma, St. Louis, Mo.) (predominantly PDE1B) and recombinant full length human PDE1A and PDE1B (r-hPDE1A and r-hPDE1B respectively) which may be produced e.g., in HEK or SF9 cells by one skilled in the art. The PDE1 enzyme is reconstituted with 50% glycerol to 2.5 U/ml. One unit of enzyme will hydrolyze 1.0 μmole of 3′,5′-cAMP to 5′-AMP per min at pH 7.5 at 30° C. One part enzyme is added to 1999 parts reaction buffer (30 μM CaCl2, 10 U/ml of calmodulin (Sigma P2277), 10 mM Tris-HCl pH 7.2, 10 mM MgCl2, 0.1% BSA, 0.05% NaN3) to yield a final concentration of 1.25 mU/ml. […]
(§4) The FL-GMP conversion reaction is initiated by combining 4 parts enzyme and inhibitor mix with 1 part substrate solution (0.225 μM) in a 384-well microtiter plate. […] The plate is incubated at room temperature for 1 hour to allow IMAP binding to proceed to completion, and then placed in an Envision multimode microplate reader (PerkinElmer, Shelton, Conn.) to measure the fluorescence polarization (Δmp).
(§5) A decrease in GMP concentration, measured as decreased Δmp, is indicative of inhibition of PDE activity.

Test [2] deals with recombinant full length human PDE1B (r-hPDE1B) (Homo sapiens (Human), UniProt Q01064). Kind of test: IMAP phosphodiesterase assay, r-hPDE1B. The test is classed as biochemical. The settings on record: IMAP fluorescence polarization, FL-GMP substrate.
Description: as §1, §2, §3
Materials: All chemicals are available from Sigma-Aldrich (St. Louis, Mo.) except for IMAP reagents (reaction buffer, binding buffer, FL-GMP and IMAP beads), which are available from Molecular Devices (Sunnyvale, Calif.). […]
as §4, §5

A further test relates to rats. The experiment in a line: Novel Object Recognition (NOR) assay. Format: in vivo. To be noted: rat, 0.3 mg/Kg PO, dosed 2 hours before T1, p<0.01. From the text: To measure the cognition-enhancing effects of the compounds of the invention, the candidate compounds may be evaluated in a Novel Object Recognition (NOR) assay. This assay protocol is described in detail in Ennaceur et al., Behav. Brain Res. (1988) 31:47-59 and Prickaerts et al., Eur. J. Pharmacol. (1997) 337:125-136, the contents of each of which are incorporated by reference in their entirety. In this protocol, the rats are introduced to a chamber at time T1 and allowed to interrogate two identical “familiar objects” for six minutes. Twenty four hours later, they are re-introduced to this chamber, where one of the familiar objects has been replaced with a novel object. The “discrimination index”, a measure of the time spent in close proximity to the novel over the familiar object, may then be measured. Since rodents will forget the original experience at T1 within 4 hours, this test with a 24 h interval is a measure of strong cognitive enhancement.
This assay protocol can be modified in order to evaluate different phases of memory. There are three general phases of memory, namely, acquisition, consolidation and retrieval. In this modified protocol, the rats may be dosed with the candidate compound two hours before T1 and tested 24 h later, without additional dosing. This is a test of the acquisition process. […]

In the next test the test system is C57BL/6 mice. Kind of test: Haloperidol-induced catalepsy model (bar grip test). To be noted: mouse, PO, haloperidol 3 mg/kg PO, step down latency. Format: in vivo. From the text: To evaluate the potential beneficial effects to motor defects present in schizophrenics treated with typical and atypical antipsychotic agents and in Parkinson's disease patients, the compounds of the invention may be tested in a reversal of catalepsy model in which motor freezing, or catalepsy, is induced by potent dopamine D2 receptor antagonists such as haloperidol or risperidone. The method uses the “bar grip test”, in which the front paws of the mouse are placed so as to grip a 3 mm-diameter, suspended wooden bar. A “step down latency” is measured by recording the time until the mouse removes its paws from the wooden bar to the floor surface. […]
A total of seventeen (17) eight week-old, male, C57BL/6 mice (Jackson Laboratories) are used in a typical experiment testing the effect of the compound of Example 1 or 2. […] A catalepsy score is recorded for each mouse at 2, 3, 4 and 6 hours after administration of drugs. […] The latency until the mouse steps both paws down from the bar to the floor surface (i.e., step down latency) is recorded up to 120 sec. […] If none of the 10 attempts are beyond 10 sec, the longest duration recorded is used as the catalepsy score. Otherwise, the initial cataleptic duration (>10 sec) is recorded during the 120 sec testing time. Mean step down latency is calculated for each treatment group. […]

`CCSc1c2c(nn1Cc1ccc(-c3ccc(F)cn3)cc1)N1CC(C)(C)N=C1N(C)C2=O` [Example 1, 3-(ethylthio)-2-(4-(5-fluoropyridin-2-yl)benzyl)-5,7,7-trimethyl-7,8-dihydro-2H-imidazo[1,2-a]pyrazolo[4,3-e]pyrimidin-4(5H)-one]: the IC50 – broadly, the concentration that inhibits the measured activity by half – in test [1] worked out at 2.7 nM; in test [2], 11000 nM. Besides, the “activity versus vehicle in Novel Object Recognition” value in the test with rats is “active versus vehicle”. Also, the “minimal dose active in catalepsy model” value with C57BL/6 mice was under 0.1 mg/kg.
As to `CCSc1c2c(nn1Cc1ccc(-c3cccc(F)n3)cc1)N1CC(C)(C)N=C1N(C)C2=O` [Example 2, 3-(ethylthio)-2-(4-(6-fluoropyridin-2-yl)benzyl)-5,7,7-trimethyl-7,8-dihydro-2H-imidazo[1,2-a]pyrazolo[4,3-e]pyrimidin-4(5H)-one], the figures for the IC50 in test [1] and in test [2] were 1 nM and 4000 nM, respectively. For the same molecule, the “minimal dose active in catalepsy model” value in the test with C57BL/6 mice was under 0.1 mg/kg.
Take `CCSc1c2c(nn1Cc1ccc(-c3cccc(F)n3)cc1)N1C(=N[C@@H]3CCC[C@@H]31)N(C)C2=O` [Example 3-A, (6aR,9aS)-5,6a,7,8,9,9a-hexahydro-5-methyl-3-(ethylthio)-2-(4-(6-fluoropyridin-2-yl)benzyl)-cyclopent[4,5]imidazo[1,2-a]pyrazolo[4,3-e]pyrimidin-4(2H)-one]: the IC50 was 1.5 nM in test [1] and 27000 nM in test [2].
Regarding `CC(C)Sc1c2c(nn1Cc1ccc(-c3cccc(F)n3)cc1)N1C(=N[C@@H]3CCC[C@@H]31)N(C)C2=O` [Example 3-B, (6aR,9aS)-5,6a,7,8,9,9a-hexahydro-5-methyl-3-(isopropylthio)-2-(4-(6-fluoropyridin-2-yl)benzyl)-cyclopent[4,5]imidazo[1,2-a]pyrazolo[4,3-e]pyrimidin-4(2H)-one], the IC50 in test [1] amounted to 6 nM.
